Results on 14 molecules are retold here after patent US5206233A, “Substituted thiazepines as central nervous system agents” (Warner-Lambert Company, priority 1991, dated 1993).

The subject of experiment [1] is guinea pig ileum. Description: inhibition of contraction of electrically stimulated guinea pig ileum. The following applies: Cavia porcellus, read-out: Inhibition of Contraction of Electrical Stimulation Guinea Pig Ileum IC50. The procedure:
(§1) The compounds of Formula I are valuable sigma ligands. […] Additionally, the compounds of Formula I were tested for their ability to inhibit locomotor activity in mice according to the assay described by McLean, J. R., et al, Pharmacology, Biochemistry and Behavior 8:97-99 (1978); for their ability to inhibit contractions of electrically stimulated guinea pig ileum according to the method of Campbell, B. G., et al, Journal of Neuroscience 9 3380-3384 (1989) and Bass, P., et al, Journal of Pharmacology and Experimental Therapeutics 186:183-198 (1973). These tests further support the antipsychotic activity of the compounds of Formula I. The above test methods are incorporated herein by reference. The data in the table show the activity of representative compounds of Formula I.

The subject of experiment [2] is locomotor activity in mice. Description: inhibition of locomotor activity in mice. Type of experiment: in vivo. The following applies: Mus musculus, IP. The procedure: as §1
In experiment [3] the target is sigma receptor. Description: 3-PPP binding (inhibition of (+)-[3H]-3-PPP, a sigma ligand, binding). The following applies: inhibition of (+)-[3H]-3-PPP binding, method of Largent et al.
The subject of experiment [4] is sigma receptor. Particulars: known antipsychotic agents; literature; cited from earlier work.

Each structure is given as a SMILES string. pIC50: −log10 of the molar value. Counter-ions that a name gives are not always drawn.

Usually pIC50 stands for −log10 of the IC50, conventionally taken in molar units. A word on the ED50: it is the midpoint of the dose-response relation. `c1ccc(C2CCN(CCCCc3cccnc3)CCS2)cc1` (stereo not drawn) [Example 15, Hexahydro-7-(phenyl)-4-[4-(3-pyridinyl)butyl]-1,4-thiazepine]: the negative logarithm of the IC50 (pIC50) in experiment [1] was 5.40; in experiment [3] it was 8.60. In experiment [2], this molecule yielded an ED50 of 17.9 mg/kg.
Turning to `COc1ccc(C2CCN(CCCCc3ccncc3)CCS2)cc1` (stereo not drawn) [Example 12, Hexahydro-7-(4-methoxyphenyl)-4-[4-(4-pyridinyl)butyl]-1,4-thiazepine], the negative-log IC50 (pIC50) in experiment [1] is 5.14; in experiment [3], 8.88. In addition, the median effective dose (ED50) in experiment [2] is 13.9 mg/kg.
Regarding `O=C(CCCN1CCC(O)(c2ccc(Cl)cc2)CC1)c1ccc(F)cc1` [haloperidol], in experiment [4], the “interaction with the sigma receptor (in words)” value (from here on “interaction”) is on record as “interact with the sigma receptor”.
`C[C@@H]1CN(CCCn2c3ccccc3c3ccccc32)C[C@H](C)N1` [rimcazole]: the “interaction” value in experiment [4] is on record as “interact with the sigma receptor”.
Consider `Cl.c1ccc(C2CCN(CCCCc3ccncc3)CCS2)cc1` (stereo not drawn) [Example 14, Hexahydro-7-(phenyl)-4-[4-(4-pyridinyl)butyl]-1,4-thiazepine, hydrochloride], for which the negative-log IC50 (pIC50) in experiment [1] is 4.88; in experiment [3] it was 8.19. In experiment [2], this molecule registered an ED50 of 13.1 mg/kg.
As for `COc1ccc(C2CCN(C(C)C)CCS2)cc1` (stereo not drawn) [Example 4, Hexahydro-7-(4-methoxyphenyl)-4-isopropyl-1,4-thiazepine, hydrochloride], the pIC50 in experiment [3] was 8.79.
For the molecule `COc1ccc(C2CCN(C)CCS2)cc1` (stereo not drawn) [Example 2, Hexahydro-7-(4-methoxyphenyl)-4-methyl-1,4-thiazepine, hydrochloride], in experiment [3], the negative logarithm of the IC50 (pIC50) is 7.78.
On to `CCN1CCC[C@H]1CNC(=O)c1c(OC)ccc(Br)c1OC` [remoxapride], for which, in experiment [4], the “interaction” value is recorded as “interact with the sigma receptor”.
Molecule `CCCN1CCSC(c2ccc(Cl)cc2)CC1` (stereo not drawn) [Example 10, Hexahydro-7-(4-chlorophenyl)-4-propyl-1,4-thiazepine] showed a pIC50 in experiment [3] of 7.67.
On the same count and under the same terms, then `CN1CCSC(c2ccc(Cl)cc2)CC1` (stereo not drawn) [Example 6, Hexahydro-7-(4-chlorophenyl)-4-methyl-1,4-thiazepine, hydrochloride], with 6.92.
On the same count and under the same terms, to `COc1ccc(C2CCN(CCCC(=O)c3cccnc3)CCS2)cc1` (stereo not drawn) [Example 13, 1-(3-Pyridinyl)-7-(4-methoxyphenyl)-4-(tetrahydro-1,4-thiazepin-4(2H)-yl)-1-butanone, dihydrochloride] belongs 8.04; to `CCN1CCSC(c2ccc(OC)cc2)CC1` (stereo not drawn) [Example 3, Hexahydro-7-(4-methoxyphenyl)-4-ethyl-1,4-thiazepine], 8.21.
As to `O=C1CC2(CCCC2)CC(=O)N1CCCCN1CCN(c2nsc3ccccc23)CC1` [tiospirone], in experiment [4], the “interaction” value is on record as “interact with the sigma receptor”.
Consider `Clc1ccc(C2CCN(CCCCc3ccncc3)CCS2)cc1` (stereo not drawn) [Example 16, Hexahydro-7-(4-chlorophenyl)-4-[4-(4-pyridinyl)butyl]-1,4-thiazepine], for which, in experiment [2], the ED50 was found to be 19 mg/kg. Besides, the pIC50 in experiment [3] was 8.58.
